Experimental data published in US9238631B2, “Radiolabeled amino acids for diagnostic imaging” (PIRAMAL IMAGING SA, priority 2011, dated 2016).
Each block holds one compound with its values, some of them ahead of it.

How the values were obtained:
[1] = target: T1, xCT (SLC7A11) (Homo sapiens, UniProt Q9UPY5); test: Competition profile indicating uptake via xCT (SLC7A11); assay type: cell-based; details: NCI-H460 cells; for competition profile / uptake mechanism of the tracer: co-incubation with 1 mM cold competitors; for reduction of [^18F]-12 uptake by excess competitor: competitor 1 mM
T1 construct: NCI-H460 tumor cells were co-incubated with the F-18 labeled tracer and several cold derivatives; endogenous in cells; host or cells: NCI-H460 tumor cells
T1 sequence (Q9UPY5 1-501): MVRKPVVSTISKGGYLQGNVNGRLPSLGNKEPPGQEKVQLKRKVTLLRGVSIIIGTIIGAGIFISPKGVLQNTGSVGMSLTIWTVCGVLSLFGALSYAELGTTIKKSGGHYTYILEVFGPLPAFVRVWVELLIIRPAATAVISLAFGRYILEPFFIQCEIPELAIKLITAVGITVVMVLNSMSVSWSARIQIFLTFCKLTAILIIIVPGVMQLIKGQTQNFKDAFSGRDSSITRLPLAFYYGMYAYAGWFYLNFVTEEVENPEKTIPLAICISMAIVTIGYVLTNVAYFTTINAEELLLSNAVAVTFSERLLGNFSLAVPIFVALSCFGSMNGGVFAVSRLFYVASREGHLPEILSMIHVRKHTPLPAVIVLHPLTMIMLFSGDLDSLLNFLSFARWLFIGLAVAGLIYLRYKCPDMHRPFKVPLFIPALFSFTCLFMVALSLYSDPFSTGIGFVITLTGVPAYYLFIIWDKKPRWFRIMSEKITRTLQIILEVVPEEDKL
T1 sequence (P08195 1-529 partner): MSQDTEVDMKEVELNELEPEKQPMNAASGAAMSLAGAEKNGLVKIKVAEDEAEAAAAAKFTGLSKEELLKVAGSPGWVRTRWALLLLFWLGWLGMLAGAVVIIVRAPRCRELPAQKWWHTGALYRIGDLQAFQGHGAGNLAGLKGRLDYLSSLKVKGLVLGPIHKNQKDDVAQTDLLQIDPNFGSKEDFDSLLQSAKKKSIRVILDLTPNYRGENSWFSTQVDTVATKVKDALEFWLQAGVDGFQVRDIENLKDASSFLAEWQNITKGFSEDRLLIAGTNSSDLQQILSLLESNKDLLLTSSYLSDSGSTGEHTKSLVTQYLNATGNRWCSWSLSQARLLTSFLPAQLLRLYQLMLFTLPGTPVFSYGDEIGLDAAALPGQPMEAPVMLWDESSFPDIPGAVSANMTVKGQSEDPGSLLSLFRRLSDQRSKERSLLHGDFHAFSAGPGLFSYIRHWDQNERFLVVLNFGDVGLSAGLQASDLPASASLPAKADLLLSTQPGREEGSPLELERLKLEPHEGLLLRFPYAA
Procedure: For determination of the responsible uptake mechanism, NCI-H460 tumor cells were co-incubated with the F-18 labeled tracer and several cold derivatives. These derivatives were used at a concentration of 1 mM, which is a large excess compared to the tracer. L-Glutamic acid, L-cystine, Carboxyphenylglycine (CPG) were used as competitors. In addition, also D-Glutamic acid, as well as L-aspartic acid and D-aspartic acid were used in this competition experiments. […] The same experiments were performed using [^18F]-1, [^18F]-4, [^18F]-9, [^18F]-8, [^18F]-25 and [^18F]-22.

[2] = test system: NCI-H460 (human NSCLC) cells; test: Cell uptake studies: 30 min uptake in H460 cells; assay type: cell-based; details: 0.25 MBq tracer, PBS 0.1% BSA
Procedure: For determination of the biological activity, the F18 labeled derivatives were used as tracers in cell uptake experiments. NCI-H460 (human NSCLC) cells, grown adherently in 48 well plates were used for these uptake-experiments. Approximately 100.000 cells were incubated with 0.25 MBq of the tracers for 30 min in PBS-buffer containing 0.1% BSA. After this time, the cell-bound radioactivity was determined using a γ-counter.

[3] = test system: NCI-H460 tumor; test: PET imaging in NCI-H460 tumor bearing nude-rats; assay type: in vivo; details: PET ROI analysis, 1 h p.i.
Procedure: c) Beside PET-imaging studies in mice, also the imaging properties of [^18F]-12 in rats were examined. NCI-H460 tumor cells were inoculated into the right flank of nude-rats (RH-Foxn1 nu/nu) 8 to 10 days before the PET study. PET images were acquired at 60 min after injection of approximately 10 MBq for 10 minutes. The H460 tumor was nicely visible (0.9% ID/g as determined by ROI analysis). Beside some minor uptake into the liver and kidneys due to the excretion of the compound, no uptake into other non-target tissues was observed.
To test the imaging properties, compounds from the present invention were evaluated in PET imaging studies using tumor bearing rats. NCI-H460 tumor cells were inoculated into the right flank of nude-rats (RH-Foxn1 nu/nu) 8 to 10 days before the PET study. PET images were acquired at 60 min after injection of approximately 10 MBq for 10 minutes. After the imaging study, region-of-interest (ROI) analysis was performed and activity in tumor, liver and kidney was determined. […] High tumor uptake values of >1% […] in this rat model were obtained with various compounds from the present invention. A favorable clearance profile of all compounds enables excellent tumor detection in PET imaging studies in tumor bearing rats.

[4] = test system: NCI-H460 tumor; test: In vivo biodistribution in NCI-H460 tumor bearing mice; details: for T/Blood / T/Muscle: 1 h post injection
Procedure: (§1) To test the pharmacokinetic properties of compounds from the present invention, all F18-labeled compounds were examined by biodistribution studies in NCI-H460 tumor bearing mice. Female NMRI (nu/nu) mice were inoculated with 5×10^6 NCI-H460 tumor cells 8 to 10 days before the biodistribution studies. 185 kBq of activity of the fluorinated compound was injected and at least n=3 mice were used for every time point. After injection of the F18-labeled compound, mice were sacrificed at defined time-points. All organs were removed and radioactivity was determined using a γ-counter.
To compare the tumor uptake and retention of radioactivity of different ^18F-labeled derivatives from the present invention, biodistribution studies were performed in NCI-H460 tumor bearing NMRI (nu/nu) mice as described above.
To compare the kidney clearance of several ^18F-labeled derivatives from the present invention, biodistribution studies were performed in NCI-H460 tumor bearing female NMRI (nu/nu) mice as described above. […] After 2 h p.i., less than 1% ID/g can be found in the kidneys.
For comparison of pancreas uptake and clearance of several ^18F-labeled derivatives from the present invention, biodistribution studies were performed in NCI-H460 tumor bearing NMRI (nu/nu) mice as described above. […] After 2 h p.i., less than 2% ID/g can be found in the pancreas.
as §1, with “and” for “for every time point. After injection of the F18-labeled compound, mice were”, “time-points raning from 15 min pi up to 2 h p.i.” for “time-points.”, “γ-counter. […] High tumor uptake values of >3% ID/g were obtained with various compounds from the present invention.” for “γ-counter.”

[5] = test system: NCI-H460 (human NSCLC) cells; test: In vitro cell-uptake study: blocking of radiolabeled glutamate derivative uptake; assay type: cell-based; details: compound 1 mM, 30 minutes, mean ± SD, without compound = 100%
Procedure: The ability of compounds from the present invention to compete with radiolabeled glutamate derivatives for uptake into tumor cells was examined. NCI-H460 (human NSCLC) cells, grown adherently in 48 well plates were used for these competition-experiments. Approximately 100.000 cells were co-incubated in PBS-buffer containing 0.1% BSA with a radiolabeled Glutamic acid derivative and several compounds, which were used at a concentration of 1 mM for 30 minutes. After this time, the cell bound radioactivity was determined.

competition profile / uptake mechanism of the tracer [1]: identical competition profile | Kidney (% ID/g at 1 h p.i.) [3]: 0.5 % ID/g | Liver (% ID/g at 1 h p.i.) [3]: 0.6 % ID/g | Tumor (Max % ID/g at 1 h p.i.) [3]: 0.9 % ID/g | Tumor (Mean % ID/g at 1 h p.i.) [3]: 0.3 % ID/g | Kidney (% ID/g at 1 h p.i.) [4]: 1.8 ± 0.6 % ID/g | Liver (% ID/g at 1 h p.i.) [4]: 4.1 ± 0.8 % ID/g | Pancreas (% ID/g at 1 h p.i.) [4]: 0.63 ± 0.04 % ID/g | Tumor (% ID/g at 1 h p.i.) [4]: 1.3 ± 0.5 % ID/g | Urine (% ID at 1 h p.i.) [4]: 64.9 ± 4.3 % ID | T/Blood [4]: 5.1 | T/Muscle [4]: 32.3
Compound: N[C@@H](CC(Cc1ccc(O[C@H]2C[C@@H]([18F])C2)cc1)C(=O)O)C(=O)O (stereo partly drawn) [[^18F]-22, 4-{4-[(cis-3-[^18F]Fluorocyclobutyl)oxy]benzyl}-L-glutamic acid]
30 min uptake into H460 cells [%/100.000 cells] [2]: 4.2 ± 0.1 %/100.000 cells

reduction of [^18F]-12 uptake by excess competitor [1]: less effective competitors
Compound: N[C@H](CC(=O)O)C(=O)O [D-aspartic acid, reference compound]

Compound: N[C@@H](CCC(=O)O)C(=O)O [L-glutamic acid, L-glutamate, reference compound]
Uptake of radiolabeled glutamate-derivative (% of control) [5]: 26.1 ± 0.3 % of control

Compound: N[C@H](C[C@@H](Cc1ccc(OCCF)cc1)C(=O)O)C(=O)O [Example 23, (4R)-4-[4-(2-Fluoroethoxy)benzyl]-D-glutamic acid]
Uptake of radiolabeled glutamate-derivative (% of control) [5]: 43.8 ± 3.2 % of control

Compound: N[C@@H](CC(CCCc1ccc(CCCF)cc1)C(=O)O)C(=O)O (stereo partly drawn) [Example 19, 4-{3-[4-(3-Fluoropropyl)phenyl]propyl}-L-glutamic acid]
Uptake of radiolabeled glutamate-derivative (% of control) [5]: 6.6 ± 1.6 % of control

competition profile / uptake mechanism of the tracer [1]: identical competition profile | Kidney (% ID/g at 1 h p.i.) [4]: 0.2 ± 0.05 % ID/g | Liver (% ID/g at 1 h p.i.) [4]: 0.2 ± 0.1 % ID/g | Pancreas (% ID/g at 1 h p.i.) [4]: 0.04 ± 0.01 % ID/g | Tumor (% ID/g at 1 h p.i.) [4]: 0.5 ± 0.1 % ID/g | Urine (% ID at 1 h p.i.) [4]: 86.6 ± 4.4 % ID | T/Blood [4]: 9.7 | T/Muscle [4]: 32.2
Compound: N[C@@H](C[C@H](CCCc1ccc(OCC[18F])cc1)C(=O)O)C(=O)O [[^18F]-25, (4S)-4-{3-[4-(2-[^18F]Fluoroethoxy)phenyl]propyl}-L-glutamic acid]
30 min uptake into H460 cells [%/100.000 cells] [2]: 3.1 ± 01 %/100.000 cells

Compound: N[C@@H](C[C@H](CCCc1ccc(OCCF)cc1)C(=O)O)C(=O)O [Example 25, (4S)-4-{3-[4-(2-Fluoroethoxy)phenyl]propyl}-L-glutamic acid]
Uptake of radiolabeled glutamate-derivative (% of control) [5]: 20.1 ± 0.4 % of control

Compound: N[C@H](C[C@@H](Cc1ccc(OCCCF)cc1)C(=O)O)C(=O)O [Example 24, (4R)-4-[4-(3-Fluoropropoxy)benzyl]-D-glutamic acid]
Uptake of radiolabeled glutamate-derivative (% of control) [5]: 36.5 ± 3.8 % of control

competition profile / uptake mechanism of the tracer [1]: identical competition profile | Kidney (% ID/g at 1 h p.i.) [4]: 0.7 ± 0.04 % ID/g | Liver (% ID/g at 1 h p.i.) [4]: 0.2 ± 0.1 % ID/g | Pancreas (% ID/g at 1 h p.i.) [4]: 0.1 ± 0.01 % ID/g | Tumor (% ID/g at 1 h p.i.) [4]: 1.8 ± 0.9 % ID/g | Urine (% ID at 1 h p.i.) [4]: 86.3 ± 7.1 % ID | T/Blood [4]: 20.5 | T/Muscle [4]: 61.7
Compound: N[C@@H](CC(Cc1ccc(CCC[18F])cc1)C(=O)O)C(=O)O (stereo partly drawn) [[^18F]-9, 4-[4-(3-[^18F]Fluoropropyl)benzyl]-L-glutamic acid]
30 min uptake into H460 cells [%/100.000 cells] [2]: 4.3 ± 0.2 %/100.000 cells

Compound: N[C@@H](C[C@H](Cc1ccc(OCCF)cc1)C(=O)O)C(=O)O [Example 1, (4S)-4-[4-(2-Fluoroethoxy)benzyl]-L-glutamic acid]
Uptake of radiolabeled glutamate-derivative (% of control) [5]: 5.0 ± 0.2 % of control

competition profile / uptake mechanism of the tracer [1]: identical competition profile | Kidney (% ID/g at 1 h p.i.) [4]: 2.8 ± 0.6 % ID/g | Liver (% ID/g at 1 h p.i.) [4]: 1.3 ± 0.3 % ID/g | Pancreas (% ID/g at 1 h p.i.) [4]: 2.2 ± 0.4 % ID/g | Tumor (% ID/g at 1 h p.i.) [4]: 4.6 ± 0.9 % ID/g | Urine (% ID at 1 h p.i.) [4]: 92.7 ± 3.8 % ID | T/Blood [4]: 26.8 | T/Muscle [4]: 46.3
Compound: N[C@@H](CC(Cc1ccc(NCCC[18F])cc1)C(=O)O)C(=O)O (stereo partly drawn) [[^18F]-8, 4-{4-[(3-[^18F]Fluoropropyl)amino]benzyl}-L-glutamic acid]
30 min uptake into H460 cells [%/100.000 cells] [2]: 15.3 ± 0.1 %/100.000 cells

Compound: N[C@@H](C[C@H](Cc1ccc(OCCCF)cc1)C(=O)O)C(=O)O [Example 4, (4S)-4-[4-(3-Fluoropropoxy)benzyl]-L-glutamic acid]
Uptake of radiolabeled glutamate-derivative (% of control) [5]: 3.0 ± 0.1 % of control

reduction of [^18F]-12 uptake by excess competitor [1]: less effective competitors
Compound: N[C@@H](CC(=O)O)C(=O)O [L-aspartic, L-aspartic acid, reference compound]

Compound: N[C@H](CCC(=O)O)C(=O)O [D-Glutamic acid, reference compound]
reduction of [^18F]-12 uptake by excess competitor [1]: less effective competitors

Compound: N[C@@H](CCC(Cc1ccc(OCCF)cc1)C(=O)O)C(=O)O (stereo partly drawn) [Example 12, (2S)-2-Amino-5-[4-(2-Fluoroethoxy)benzyl]-hexanedioic acid]
Uptake of radiolabeled glutamate-derivative (% of control) [5]: 3.9 ± 0.3 % of control
